{
  "source": "paper PMC9867837",
  "about": "(Cancer letters, 2022)",
  "key": {"[1]": {"target": "T1, pYStat3C426A (Homo sapiens, UniProt P40763, C426A)", "T1 construct": "made in house; host or cells: E. coli BL21(DE3) TKB1 (inducible tyrosine kinase)", "T1 sequence (P40763 127-711 C426A)": "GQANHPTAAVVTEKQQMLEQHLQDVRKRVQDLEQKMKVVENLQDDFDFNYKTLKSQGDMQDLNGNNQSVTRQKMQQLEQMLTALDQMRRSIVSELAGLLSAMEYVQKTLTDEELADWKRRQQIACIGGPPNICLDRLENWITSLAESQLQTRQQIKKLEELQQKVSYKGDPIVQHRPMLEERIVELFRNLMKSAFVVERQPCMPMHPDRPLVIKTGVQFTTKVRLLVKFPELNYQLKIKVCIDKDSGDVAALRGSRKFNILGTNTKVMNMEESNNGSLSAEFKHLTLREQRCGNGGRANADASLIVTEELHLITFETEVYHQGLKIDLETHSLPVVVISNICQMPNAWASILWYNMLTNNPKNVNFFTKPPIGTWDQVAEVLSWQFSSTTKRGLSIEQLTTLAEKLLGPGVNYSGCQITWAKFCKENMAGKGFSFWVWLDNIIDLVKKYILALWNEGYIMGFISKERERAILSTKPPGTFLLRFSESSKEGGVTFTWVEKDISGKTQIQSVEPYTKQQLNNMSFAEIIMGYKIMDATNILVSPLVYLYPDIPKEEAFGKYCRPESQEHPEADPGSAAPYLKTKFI", "assay": "EMSA with purified mutant pYStat3C426A", "format": "biochemical", "description": "This construct was used to generate the mutants, Stat3C328A, Stat3C426A, Stat3C468A, and Stat3C542S, as described in detail in Supplementary Information “Methods”.\nThe expression of un-phosphorylated and tyrosine phosphorylated His-tagged recombinant wtStat3 and mutant Stat3 proteins in BL21 (DE3) bacterial cells is described in detail in Supplementary Information “Methods”.\nGiven the MS data, we conducted site-directed mutagenesis analysis for the effects of Cys mutations (Cys-to-Ala or Cys-to-Ser mutations) on the inhibitory activities or potencies of the compounds. […] Purified, phosphorylated wild-type (wt)Stat3, and phosphorylated mutants, Stat3C328A, Stat3C426A, Stat3C468A, and Stat3C542S protein samples of equal amounts were pre-incubated with or without 3 μM H182 for 30 min at room temperature prior to incubation with the radiolabeled hSIE probe that binds Stat3 and subjecting to EMSA analysis. […] Focusing on the C426 and C468, we next conducted dose-response studies for effects of H182 on Stat3C426A and Stat3C468A. […] Equal proteins used in the DNA-binding assay/EMSA analysis are shown by SDS-PAGE Coomassie staining (Fig. 3B, lower). […]\nIn another case, the nuclear extract was pre-incubated with the radiolabeled probe for 30 min at 30 °C prior to incubation with increasing concentration of H182 at room temperature for 30 min and subjecting to EMSA analysis. Bands corresponding to Stats DNA- binding activities were scanned and quantified using ImageJ and plotted as a percentage of control (vehicle) against the concentration of the inhibitor, from which the IC50 values were derived . […]\nThese studies were performed as previously reported using the v-Src -transformed NIH3T3/v-Src fibroblasts [1 -5] . […] Luciferase activity was normalized to total protein concentration of cell lysate, which was determined by Bradford assay (Bio-Rad, Hercules, CA) . […]"}, "[2]": {"tested_on": "MDA-MB-231 cells", "assay": "Wound healing (scratch) assay for migration", "format": "cell-based, human", "settings": "one-time treatment, 22 h", "experimental": "Studies were performed as previously reported. Details are presented in Supplementary Information, “Methods”. […]\nsoftware and Prism GraphPad software (San Diego, CA), using the one-site model. Control experiments were carried out by titration H182 into buffer, buffer into Stat3, and buffer into buffer. The three controls were used as a composite for the ITC experiment to subtract the heat of dilution and background noise from […]\n1.2.11. Wound healing assay for migration\nStudies were performed as previously reported [1 -3]. Briefly, cells were cultured in 6-well plates, and the monolayer of cells was scratched with a p10 pipet tip. Subsequently, fresh medium containing inhibitors or DMSO (control) was added, and then immediately, cells were imaged with a Canon Powershot A640 digital camera under a phase contrast with the Zeiss Axiovert 200 inverted microscope at 10X magnification and noted as the zero time-point. Following culture for 22 h to allow cells to migrate into the denuded area, the culture was then imaged again at the same field that was marked on the plate.\n1.2.12. Annexin V binding/apoptosis and flow cytometric analysis\nFor apoptosis analysis, annexin V/propidium iodide (PI) staining was performed. […] The annexin V- and/or PI-positive cells were analyzed by FACScan flow cytometer (BD Biosciences) and data was analyzed using FlowJo software. […]"}, "[3]": {"target": "T2, hERG (Homo sapiens, UniProt Q12809)", "T2 construct": "Eurofins-CEREP (contract research organisation that ran the assay)", "T2 sequence (Q12809 whole entry)": "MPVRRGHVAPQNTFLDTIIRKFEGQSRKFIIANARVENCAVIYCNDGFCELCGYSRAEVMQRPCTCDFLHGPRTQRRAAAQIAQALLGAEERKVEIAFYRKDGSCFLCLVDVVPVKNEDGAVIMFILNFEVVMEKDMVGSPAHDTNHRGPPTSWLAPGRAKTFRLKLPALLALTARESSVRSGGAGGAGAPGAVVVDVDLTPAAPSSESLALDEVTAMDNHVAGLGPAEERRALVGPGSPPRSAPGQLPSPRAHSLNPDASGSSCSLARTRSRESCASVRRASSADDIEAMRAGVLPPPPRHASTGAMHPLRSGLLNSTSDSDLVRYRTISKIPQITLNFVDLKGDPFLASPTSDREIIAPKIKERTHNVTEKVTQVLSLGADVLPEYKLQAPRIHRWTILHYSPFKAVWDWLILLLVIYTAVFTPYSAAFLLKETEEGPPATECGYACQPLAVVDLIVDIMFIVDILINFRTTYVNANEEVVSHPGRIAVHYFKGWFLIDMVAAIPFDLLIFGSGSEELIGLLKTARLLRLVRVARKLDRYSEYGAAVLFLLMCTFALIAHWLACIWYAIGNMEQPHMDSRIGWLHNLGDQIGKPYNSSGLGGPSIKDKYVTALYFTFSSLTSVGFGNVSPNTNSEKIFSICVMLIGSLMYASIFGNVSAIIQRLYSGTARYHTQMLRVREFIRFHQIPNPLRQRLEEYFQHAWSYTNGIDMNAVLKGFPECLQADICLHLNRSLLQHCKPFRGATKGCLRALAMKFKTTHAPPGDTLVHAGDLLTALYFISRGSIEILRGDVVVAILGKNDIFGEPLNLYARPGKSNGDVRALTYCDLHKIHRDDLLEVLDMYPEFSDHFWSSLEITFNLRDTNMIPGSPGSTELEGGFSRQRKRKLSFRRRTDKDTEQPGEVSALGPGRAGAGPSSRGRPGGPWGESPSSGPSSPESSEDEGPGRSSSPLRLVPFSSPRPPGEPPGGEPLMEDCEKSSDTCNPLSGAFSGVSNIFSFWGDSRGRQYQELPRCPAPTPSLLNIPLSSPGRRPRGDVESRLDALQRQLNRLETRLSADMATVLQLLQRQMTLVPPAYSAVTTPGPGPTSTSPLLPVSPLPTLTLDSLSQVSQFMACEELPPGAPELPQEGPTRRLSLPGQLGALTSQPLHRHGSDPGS", "assay": "CEREP SafetyScreen44, hERG", "format": "binding", "settings": "10 μM H182", "experimental": "The in vivo activity of a compound is influenced by its overall bioavailability, which is also driven by parameters, such as solubility, permeability, and metabolism. […] These values are all above the industry cut-off of 60 μg/ml. […] It has CLint in human hepatocytes of 16 μL/min/10^6 cells, which falls into moderate stability range [43]."}},
  "data": [
    {"smiles": "O=C([C@H]1CCN1S(=O)(=O)c1c(F)c(F)c(F)c(F)c1F)N(Cc1ccc(C2CCCCC2)cn1)c1ccc2c(=O)[nH]ncc2c1", "note": "[Compound H182]", "values": [
      {"measurement": "Effect on DNA-binding activity of pYStat3C426A", "setting": "[1]; 3 μM H182, 30 min", "result": "unaffected"},
      {"measurement": "Effect on pYStat3C426A activity", "setting": "[1]; 10 μM H182", "result": "near complete inhibition"},
      {"measurement": "IC50", "setting": "[1]; EMSA, 0–50 μM H182, 30 min", "result": 6, "unit": "µM"},
      {"measurement": "Effect on cell migration into the denuded area", "setting": "[2]", "result": "inhibited the cell migration"},
      {"measurement": "inhibition at 10 µM", "setting": "[3]", "result": "> 80", "unit": "%"}
    ]}
  ]
}
